# Results taken from PMC11054271, “ABCG2 Transports the Flukicide Nitroxynil and Affects Its Biodistribution and Secretion into Milk” (Pharmaceutics, 2024).
# What was measured:
# murine Abcg2 [1] = molecular target: T1, murine Abcg2 (Mus musculus, UniProt Q7TMS5); assay: Transepithelial transport assay in MDCK-II cells transduced with murine Abcg2; type: in vitro ADME; set-up: expressed in transfected cells; host or cells: MDCK-II (canine kidney) subclone, provided by A. H. Schinkel (Netherlands Cancer Institute); details: MDCK-II mAbcg2, nitroxynil 10 µM, no Ko143, read-out: Relative efflux transport ratio (BA/AB)
# T1 sequence (Q7TMS5 1-657): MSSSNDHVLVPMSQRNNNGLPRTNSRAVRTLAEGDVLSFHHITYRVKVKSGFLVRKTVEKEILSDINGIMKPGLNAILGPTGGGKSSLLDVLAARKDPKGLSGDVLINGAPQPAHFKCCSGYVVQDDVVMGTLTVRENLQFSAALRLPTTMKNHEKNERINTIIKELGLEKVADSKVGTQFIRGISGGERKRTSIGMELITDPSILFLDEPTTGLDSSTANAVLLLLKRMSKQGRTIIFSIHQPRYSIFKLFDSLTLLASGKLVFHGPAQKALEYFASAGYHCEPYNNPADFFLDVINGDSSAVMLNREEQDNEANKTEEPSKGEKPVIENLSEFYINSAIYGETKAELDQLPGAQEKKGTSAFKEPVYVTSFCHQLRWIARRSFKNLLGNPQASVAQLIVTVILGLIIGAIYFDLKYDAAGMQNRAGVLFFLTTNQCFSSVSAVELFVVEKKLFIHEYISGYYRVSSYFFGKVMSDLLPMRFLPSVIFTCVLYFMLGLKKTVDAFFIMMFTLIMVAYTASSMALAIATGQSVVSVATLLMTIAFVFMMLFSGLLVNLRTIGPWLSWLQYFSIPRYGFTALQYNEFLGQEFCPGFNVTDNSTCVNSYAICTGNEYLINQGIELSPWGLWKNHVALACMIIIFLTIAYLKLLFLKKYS
# Method: Parental Madin–Darby canine kidney epithelial cells (MDCK–II) and their subclones transduced with murine (mAbcg2) and human (hABCG2) variants of ABCG2 were kindly provided by Dr. A. H. Schinkel (Netherlands Cancer Institute). Transduced MDCK–II cells with the ovine (oABCG2) and bovine (bABCG2) variants were previously generated by our group. Cells were cultured as described elsewhere.
# Transepithelial transport assays were carried out as previously described with minor variations, using Hanks’ balanced salt solution (Sigma-Aldrich) supplemented with HEPES (25 mM), with or without Ko143 (1 μM), and containing or not nitroxynil 10 μM. […] At the end of the experiment, confluence of the monolayer was measured with the previously described Lucifer Yellow permeability test, with minor modifications. The appearance of nitroxynil in the opposite side of the well was measured by HPLC as later described. Active transport was expressed as relative efflux transport ratio (apically directed transport percentage divided by the basolaterally directed translocation percentage) at 4 h and referred to the initial concentration. […]
# Waters 2695 separation module and Waters 2998 UV photodiode array detector set at 270 nm were used for samples analysis. […] Limit of detection (LOD) and quantification (LOQ) were calculated as previously described. […]
# [2] = set-up: method as in PMID 7180778; details: cited from earlier work
# murine Abcg2 [3] = molecular target: T1, murine Abcg2; assay: Tissue distribution in wild-type and Abcg2−/− male mice; type: in vivo; set-up: from tissue; host or cells: whole animal: wild-type vs Abcg2-/- mice, >99% FVB/N background
# Method: All in vivo experiments were carried out using wild-type and Abcg2^−/− mice aged between 8 and 17 weeks, all of >99% FVB/N genetic background, generated and gently supplied by A. H. Schinkel (Netherlands Cancer Institute). Mice were housed and handled complying with institutional and ARRIVE guidelines and European legislation (EU Directive 2010/63/EU for animal experiments). Additionally, experimental procedures were approved by the Animal Care and Use Committee of the University of León and the Junta de Castilla y León (ULE_011_2019).
# For pharmacokinetic experiments, a single dose of nitroxynil at 10 mg/kg was administered subcutaneously to wild-type and Abcg2^−/− male mice (n = 4–5, for each time point). Distomicide® (250 mg/mL) commercial solution was dissolved in saline (sodium chloride 0.9%) and dosed at 200 μL per 30 g body weight. Blood samples were collected at different time points (0.5, 3, 4.5, 6, 24, 48 and 96 h) and heparinized blood samples were centrifugated for 15 min at 3000× g. Organs were also collected at 24 and 96 h after euthanasia. Linear trapezoidal rule was used to calculate the area under the plasma concentration–time curve (AUC) parameter.
# Plasma, milk and tissue samples from each animal were individually processed and analyzed without pooling, while samples from transport assays were not processed. Tissue samples were homogenized in a mixture of 50% water/50% methanol HCl 0.5% (v/v); 1 mL solution per 0.1 g tissue. The entire amount of collected milk (74.7–295.1 mg) and 100 μL plasma and tissue homogenates were processed. To each sample, 10 μL of a nitrofurantoin solution (10 μg/mL for plasma and milk and 2 μg/mL for homogenized tissues) was added as an internal standard and 150 μL acetonitrile was used to precipitate the proteins. The mixture was vortexed horizontally for 15 min and centrifugated at 10,000× g for 5 min at 4 °C. Supernatant was transferred to a new tube and dried at 40 °C under N2 stream. Samples were reconstituted in 100 μL of mobile phase and 50 μL was injected into HPLC. Standards were subjected to the same procedures as samples.
# Waters 2695 separation module and Waters 2998 UV photodiode array detector set at 270 nm were used for samples analysis. Chromatographic conditions for nitroxynil detection were based on previously described methods, with minor modifications. Chromatographic separation was achieved on a reverse-phase column (Synergy 4 μm Hydro–RP 80 Å, 250 × 4.60 mm; Phenomenex®, Torrance, CA, USA) using an isocratic binary mobile phase consisting of 25 mM potassium phosphate monobasic (KH2PO4), pH 4: acetonitrile (70:30 for culture samples and 80:20 for animal samples) at a flow rate of 1 mL/min. Autosampler and column temperature were 4 °C and 40 °C, respectively. Limit of detection (LOD) and quantification (LOQ) were calculated as previously described. For cell culture samples, LOD and LOQ were 0.003 μg/mL and 0.007 μg/mL, respectively. For in vivo samples, LOD was in the range of 0.01–0.07 μg/mL and LOQ in the range of 0.03–0.15 μg/mL.
# [4] = wild-type male mice, 96 h, 10 mg/kg s.c.
structure (smiles),measurement,setting,value
N#Cc1cc(I)c(O)c([N+](=O)[O-])c1 [nitroxynil],"efflux ratio at 4 h, 10 µM",murine Abcg2 [1],32.3 ± 7.59
same,Time after treatment at which residues have been found in tissues,[2],≤ 90 days
same,"Concentration in kidney, small intestine and testis, fold higher in Abcg2−/− mice","murine Abcg2 [3]; abstract statement, time not given",~2 fold
same,"Small intestine levels, fold higher in Abcg2−/− compared with wild-type","murine Abcg2 [3]; male mice, 24 h, 10 mg/kg s.c.",1.4 fold
same,"Spleen accumulation, fold higher in Abcg2−/− compared with wild-type","murine Abcg2 [3]; male mice, 24 h, 10 mg/kg s.c.",1.7 fold
same,"Testis concentration, fold higher in Abcg2−/− compared with wild-type","murine Abcg2 [3]; male mice, 24 h, 10 mg/kg s.c.",~1.6 fold
same,"Tissue concentration, liver",murine Abcg2 [3]; [4],<LOQ
same,"Tissue concentration, small intestine",murine Abcg2 [3]; [4],<LOQ
same,"Tissue concentration, spleen",murine Abcg2 [3]; [4],<LOQ
same,"Tissue concentration, testis",murine Abcg2 [3]; [4],<LOQ
